Measurements as given in the supplement of paper PMC10307832.

Columns and labels:
Assay in all cases: relative viability (nuclei count vs DMSO), 5 days (fraction); higher = more cells survive
[1] = test system: EPLC-272H
Outline: (§1)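 Five library-drug doses in √10 steps were combined with a fixed anchor-drug dose, or a single drug was given alone, by pin tool to lung cancer cell lines in 1536-well plates the day after seeding. Nuclei were stained and counted after 5 days. Relative viability is the nuclei count in treated wells over that in vehicle wells, taken as the median of duplicate plates.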

[2] = test system: NCI-H1666
Outline: as §1

[3] = test system: HCC-44
Outline: as §1

[4] = test system: NCI-H1395
Outline: as §1

[5] = test system: HOP-62
Outline: as §1

[6] = test system: NCI-H2087
Outline: as §1

[7] = test system: NCI-H2342
Outline: as §1

[8] = test system: NCI-H2085
Outline: as §1

[9] = test system: LU99A
Outline: as §1

[10] = test system: COR-L 105
Outline: as §1

[11] = test system: NCI-H358
Outline: as §1

[12] = test system: EKVX
Outline: as §1

[13] = test system: HCC-827
Outline: as §1

[14] = test system: LOU-NH91
Outline: as §1

[15] = test system: 201T
Outline: as §1

[16] = test system: H3255
Outline: as §1

[17] = test system: LCLC-97TM1
Outline: as §1

[18] = test system: NCI-H647
Outline: as §1

[19] = test system: NCI-H2126
Outline: as §1

[20] = test system: NCI-H1975
Outline: as §1

[21] = test system: NCI-H1437
Outline: as §1

[22] = test system: SW 1573
Outline: as §1

[23] = test system: BEN
Outline: as §1

[24] = test system: PC-3 [JPC-3]
Outline: as §1

For `COc1cc(N2CCC(C(N)=O)CC2)ccc1Nc1nc(N)c(Cl)c(Nc2ccccc2S(=O)(=O)C(C)C)n1` [HG-5-88-01] + CCNC(=O)c1noc(-c2cc(C(C)C)c(O)cc2O)c1-c1ccc(CN2CCOCC2)cc1 [Luminespib] (partner 0.01 µM), the relative viability ([1]; first compound 0.04 µM) was 0.384, the relative viability ([1]; first compound 0.1265 µM) was 0.269 and the relative viability ([1]; first compound 0.4 µM) was 0.347. For the same molecule, the relative viability ([1]; first compound 1.265 µM) was 0.181, the relative viability ([1]; first compound 4 µM) was 0.204 and the relative viability ([2]; first compound 0.04 µM) was 1.05. For the same molecule, the relative viability ([2]; first compound 0.1265 µM) was 0.991, the relative viability ([2]; first compound 0.4 µM) was 0.948 and the relative viability ([2]; first compound 1.265 µM) was 0.925. For the same molecule, the relative viability ([2]; first compound 4 µM) was 0.777, the relative viability ([3]; first compound 0.04 µM) was 1.01 and the relative viability ([3]; first compound 0.1265 µM) was 0.988. It also gave a relative viability ([3]; first compound 0.4 µM) of 0.915, a relative viability ([3]; first compound 1.265 µM) of 0.366 and a relative viability ([3]; first compound 4 µM) of 0.783. For the same molecule, the relative viability ([4]; first compound 0.04 µM) was 0.723, the relative viability ([4]; first compound 0.1265 µM) was 0.611 and the relative viability ([4]; first compound 0.4 µM) was 0.669. The relative viability ([4]; first compound 1.265 µM) was 0.532, the relative viability ([4]; first compound 4 µM) was 0.989 and the relative viability ([5]; first compound 0.04 µM) was 0.889. For the same molecule, the relative viability ([5]; first compound 0.1265 µM) was 0.932, the relative viability ([5]; first compound 0.4 µM) was 0.878 and the relative viability ([5]; first compound 1.265 µM) was 0.964. For the same molecule, the relative viability ([5]; first compound 4 µM) was 1.01, the relative viability ([6]; first compound 0.04 µM) was 0.173 and the relative viability ([6]; first compound 0.1265 µM) was 0.228. For the same molecule, the relative viability ([6]; first compound 0.4 µM) was 0.173, the relative viability ([6]; first compound 1.265 µM) was 0.19 and the relative viability ([6]; first compound 4 µM) was 0.204. For the same molecule, the relative viability ([7]; first compound 0.04 µM) was 0.672, the relative viability ([7]; first compound 0.1265 µM) was 0.739 and the relative viability ([7]; first compound 0.4 µM) was 0.688. The relative viability ([7]; first compound 1.265 µM) was 0.701, the relative viability ([7]; first compound 4 µM) was 0.845 and the relative viability ([8]; first compound 0.04 µM) was 0.405. It also gave a relative viability ([8]; first compound 0.1265 µM) of 0.453, a relative viability ([8]; first compound 0.4 µM) of 0.407 and a relative viability ([8]; first compound 1.265 µM) of 0.434. For the same molecule, the relative viability ([8]; first compound 4 µM) was 0.464, the relative viability ([9]; first compound 0.04 µM) was 0.214 and the relative viability ([9]; first compound 0.1265 µM) was 0.217. It also gave a relative viability ([9]; first compound 0.4 µM) of 0.288, a relative viability ([9]; first compound 1.265 µM) of 0.275 and a relative viability ([9]; first compound 4 µM) of 0.252. It also gave a relative viability ([10]; first compound 0.04 µM) of 0.664, a relative viability ([10]; first compound 0.1265 µM) of 1.02 and a relative viability ([10]; first compound 0.4 µM) of 0.851. It also gave a relative viability ([10]; first compound 1.265 µM) of 0.903, a relative viability ([10]; first compound 4 µM) of 0.702 and a relative viability ([11]; first compound 0.04 µM) of 0.335. The relative viability ([11]; first compound 0.1265 µM) was 0.256, the relative viability ([11]; first compound 0.4 µM) was 0.422 and the relative viability ([11]; first compound 1.265 µM) was 0.099. It also gave a relative viability ([11]; first compound 4 µM) of 0.148, a relative viability ([12]; first compound 0.04 µM) of 0.892 and a relative viability ([12]; first compound 0.1265 µM) of 0.838. For the same molecule, the relative viability ([12]; first compound 0.4 µM) was 0.752, the relative viability ([12]; first compound 4 µM) was 0.838 and the relative viability ([13]; first compound 0.04 µM) was 0.767. It also gave a relative viability ([13]; first compound 0.1265 µM) of 0.86, a relative viability ([13]; first compound 0.4 µM) of 0.575 and a relative viability ([13]; first compound 1.265 µM) of 0.581. It also gave a relative viability ([13]; first compound 4 µM) of 0.361, a relative viability ([14]; first compound 0.04 µM) of 0.337 and a relative viability ([14]; first compound 0.1265 µM) of 0.338. For the same molecule, the relative viability ([14]; first compound 0.4 µM) was 0.331, the relative viability ([14]; first compound 1.265 µM) was 0.35 and the relative viability ([14]; first compound 4 µM) was 0.356. It also gave a relative viability ([15]; first compound 0.04 µM) of 1.01, a relative viability ([15]; first compound 0.1265 µM) of 1.04 and a relative viability ([15]; first compound 0.4 µM) of 1.08. For the same molecule, the relative viability ([15]; first compound 1.265 µM) was 1.03, the relative viability ([15]; first compound 4 µM) was 1.11 and the relative viability ([16]; first compound 0.04 µM) was 0.752. For the same molecule, the relative viability ([16]; first compound 0.1265 µM) was 0.913, the relative viability ([16]; first compound 0.4 µM) was 0.818 and the relative viability ([16]; first compound 4 µM) was 0.847. For the same molecule, the relative viability ([17]; first compound 0.04 µM) was 0.864, the relative viability ([17]; first compound 0.1265 µM) was 0.647 and the relative viability ([17]; first compound 0.4 µM) was 0.713. It also gave a relative viability ([17]; first compound 1.265 µM) of 0.511, a relative viability ([17]; first compound 4 µM) of 0.301 and a relative viability ([18]; first compound 0.04 µM) of 0.25. It also gave a relative viability ([18]; first compound 0.1265 µM) of 0.363, a relative viability ([18]; first compound 0.4 µM) of 0.13 and a relative viability ([18]; first compound 1.265 µM) of 0.148. It also gave a relative viability ([18]; first compound 4 µM) of 0.248, a relative viability ([19]; first compound 0.04 µM) of 0.836 and a relative viability ([19]; first compound 0.1265 µM) of 0.975. It also gave a relative viability ([19]; first compound 0.4 µM) of 0.861, a relative viability ([19]; first compound 1.265 µM) of 0.699 and a relative viability ([19]; first compound 4 µM) of 0.57. It also gave a relative viability ([20]; first compound 0.04 µM) of 0.34, a relative viability ([20]; first compound 0.1265 µM) of 0.215 and a relative viability ([20]; first compound 0.4 µM) of 0.35. The relative viability ([20]; first compound 1.265 µM) was 0.171, the relative viability ([20]; first compound 4 µM) was 0.174 and the relative viability ([21]; first compound 0.04 µM) was 1.09. For the same molecule, the relative viability ([21]; first compound 0.1265 µM) was 1.1, the relative viability ([21]; first compound 0.4 µM) was 1.07 and the relative viability ([21]; first compound 1.265 µM) was 0.998. It also gave a relative viability ([21]; first compound 4 µM) of 1.23, a relative viability ([22]; first compound 0.04 µM) of 0.261 and a relative viability ([22]; first compound 0.1265 µM) of 0.213. The relative viability ([22]; first compound 0.4 µM) was 0.194, the relative viability ([22]; first compound 1.265 µM) was 0.205 and the relative viability ([22]; first compound 4 µM) was 0.242. It also gave a relative viability ([23]; first compound 0.04 µM) of 0.337, a relative viability ([23]; first compound 0.1265 µM) of 0.412 and a relative viability ([23]; first compound 0.4 µM) of 0.43. It also gave a relative viability ([23]; first compound 1.265 µM) of 0.465, a relative viability ([23]; first compound 4 µM) of 0.234 and a relative viability ([24]; first compound 0.04 µM) of 0.709. The relative viability ([24]; first compound 0.1265 µM) was 0.656, the relative viability ([24]; first compound 0.4 µM) was 0.724 and the relative viability ([24]; first compound 1.265 µM) was 0.744. It also gave a relative viability ([24]; first compound 4 µM) of 0.743.
